# Test results from patent US20120207856A1, “MSH3 Expression Status Determines the Responsiveness of Cancer Cells to the Chemotherapeutic Treatment with PARP Inhibitors and Platinum Drugs” (Baylor Research Institute, priority 2011, published 2012).
# Like-named read-outs stand apart in the source and are kept apart here.
# Key:
# [1] = system: HT29 cells; experiment: Clonogenic survival after transient MSH3 siRNA transfection; type: cell-based, human; details: HT29 cells treated with MSH3 siRNA versus non-targeted siRNA; FIGS. 3E & 3F
# [2] = system: HCT116, HCT116+3, HCT116+3+5, G1, G2 and G5 cells; experiment: Clonogenic survival assay in isogenic HCT116-derived cell lines; type: cell-based, human
# Procedure: (§1) Cell lines and cell culture—The human colon cancer cell lines HCT116, HCT116+ch.3 (HCT116+3), HCT116+ch.3+ch.5 (HCT116+3+5) have been described previously (10,23). HCT116+3+5 cells were stably transfected with a tetracycline-regulated retroviral vector, the TMP (Open Biosystems, Huntsville, Ala.) that encodes shRNA against MSH3. Stable MSH3-deficient clones G1, G2 and G5 were isolated (see results and (23)). HCT116, HCT116+3, and HCT116+3+5 cells were grown in IMDM (Invitrogen, Rockville, Md.) with 10% fetal bovine serum. The G1, G2 and G5 cells were maintained in IMDM with 10% fetal bovine serum and 0.6 μg/ml of puromycin. To turn off the expression of MSH3 shRNA, 1 μg/ml of doxycycline was added to the culture medium.
# Clonogenic survival assay—Two hundred cells were seeded in each well of a six-well plate. For the measurement of the cytotoxicity caused by cisplatin or oxaliplatin, the cells were treated with the drugs for 24 hours once the cells were attached to the plate. For the measurement of the cytotoxicity caused by olaparib, cells were continuously treated with the drug during the experiments. After 8-10 days, the number of colonies (colonies with >50 cells) were counted, and the relative change in clonogenic survival of drug-treated versus untreated cells was determined.
# [3] = system: HCT116+3+5 and G5 cells; experiment: Clonogenic survival after MLH1 siRNA transfection; type: cell-based, human
# [4] = system: HHUA cells; details: MSH3-deficient HHUA versus MSH3-proficient HHUA complemented with chromosome 5; cited from earlier work
# [5] = system: tumors occurring in MSH2-null mice; details: MSH2-null mice versus mice with MSH2 G674D mutations; cited from earlier work
# [6] = system: HCT116+3+5 cells; experiment: Clonogenic survival after transient MSH3 siRNA transfection; type: cell-based, human; details: MSH3 siRNA versus non-targeted siRNA; cisplatin 5 μM and 10 μM, oxaliplatin 2 μM and 5 μM, 48 hours after transfection; FIGS. 3B & 3C
# [7] = system: pH2AX; experiment: Immunofluorescence staining for pH2AX foci; type: cell-based, human
# Procedure: (§2) Immunofluorescence staining—Ten thousand cells were grown on glass coverslips in a 12-well plate. The cells were fixed with 4% paraformaldehyde (pH 7.5) in PBS for 15 minutes, permeabilized with 0.3% Triton X-100 for five minutes, and then blocked with 10% goat serum (Invitrogen, Carlsbad, Calif.) for one hour. The cells were subsequently incubated with an anti-active caspase-3 antibody (1:500, G748, Promega, Madison, Wis.) an anti-phosphorylated H2AX (pH2AX) antibody (1:5000, JBW301, Millipore Corporation, Billerica, Mass.), or an anti-53BP1 antibody (1:600, ab21083, Abcam, Cambridge, Mass.) for one hour, followed by a secondary antibody (1:800, Alexa Fluor 555 goat anti-mouse or anti-rabbit antibody, Invitrogen) for 40 minutes. Prolong Gold with DAPI (Invitrogen) was used in mounting the medium. The images were obtained using AxioSkop2 multichannel epifluorescence microscope equipped with the AxioVision software (Carl Zeiss, Thornwood, N.Y.).
# [8] = system: HCT116+3+5 and G5 cells; experiment: Immunofluorescence staining for active caspase-3; type: cell-based, human; details: MSH3-deficient cells, FIG. 2H
# Procedure: as §2
# [9] = system: 53BP1; experiment: Immunofluorescence staining for 53BP1 foci; type: cell-based, human; details: MSH3-deficient G5 cells after treatment; 5 μM for 6 hours, analyzed after 48 hours; FIGS. 5C & 5D
# Procedure: as §2
# [10] = system: HCT116+3+5 and G5 cells; experiment: Proliferation assay (BrdU incorporation); type: cell-based, human; details: MSH3-deficient cells; FIG. 2G
# Procedure: Proliferation assay—The proliferation index was measured by bromodeoxyuridine (BrdU) incorporation in HCT116+3+5 and G5 cells, 48 hours after the initial 24 hour treatment with cisplatin or oxaliplatin (Cell Proliferation ELISA, BrdU, Roche Diagnositics, Indianapolis, Ind.). Experiments were performed in triplicate and data was obtained from three or four independent experiments.
# [11] = system: HCT116+3+5 and G1 cells; experiment: Cell cycle analysis by flow cytometry; type: cell-based, human; details: MSH3-deficient versus MSH3-proficient cells
# Procedure: Cell cycle analysis—One million cells were seeded in 10 cm plates. Once attached, the cell lines were treated with oxaliplatin for 24 hours. After an additional 48 hours, cells were washed twice with cold PBS, fixed in cold 70% ethanol at −20° C. overnight or for several days. The ethanol fixed cells (2×10^6) were subsequently washed with PBS twice and incubated with 300 μl of PBS and 0.15% RNase A for 15 minutes at 37° C. The cells were stained with 75 μg/ml propidium iodide for 30 minutes and then analyzed for DNA content using the FACSCantoII flow cytometer (BD Biosciences, San Jose, Calif.). Cell cycle data was analyzed by the Flowjo software (Tree Star, Ashland, Oreg.).
# [12] = system: MSH3; experiment: Western blot analysis of MSH3 expression; type: cell-based, human; details: G1, G2 and G5 clones; doxycycline 1 μg/ml; densitometry; FIGS. 1A & 1B
# Procedure: as §1
# Western blot analysis—Proteins from cell lysates were prepared, separated on the SDS-PAGE and transferred to PVDF membranes as described previously (31). Anti-hMSH3 mouse monoclonal antibody (dilution; 1:250, Clone 52, BD Pharmingen, San Jose, Calif.), anti-hMLH1 mouse monoclonal antibody (1:200, G168-728, BD Pharmingen) and anti-β-actin antibody (1:10000, Clone AC-15, Sigma-Aldrich) were used as primary antibodies for the detection of specific proteins. Goat anti-mouse antibody (1:3000, sc-2005, Santa Cruz Biotechnology, Santa Cruz, Calif.) was used as a secondary antibody. […]
# [13] = system: MSH3-deficient cells; experiment: Sensitivity of MSH3-deficient cells to SN-38 (data not shown); type: cell-based
structure (smiles),measurement,setting,value
N.N.[Cl][Pt][Cl] [cisplatin],sensitivity (clonogenic survival),[1],more sensitive
same,sensitivity (clonogenic survival),"[2]; G1 and G2 clones, data not shown",behaved similarly to G5
same,sensitivity (clonogenic survival) on restoration of MSH3 expression,"[2]; G5 cells with versus without doxycycline, 5 μM, FIG. 2B",desensitized
same,sensitivity (clonogenic survival),"[2]; HCT116 versus HCT116+3 cell lines, FIG. 2A",No significant differences
same,sensitivity (clonogenic survival),"[2]; MSH3-deficient G5 clone versus parental HCT116+3+5, FIG. 2A",more sensitive
same,resistance (clonogenic survival),"[2]; MSH3-proficient HCT116+3+5 versus HCT116 and HCT116+3, FIG. 2A",higher resistance
same,sensitivity (clonogenic survival),"[3]; G5 versus HCT116+3+5, MLH1 down-regulated by siRNA, 2 μM and 5 μM, FIGS. 4C & 4D",more sensitive
same,sensitivity,[4],did not differ
same,resistance of tumors,[5],more resistant
same,susceptibility (clonogenic survival),[6],more susceptible
O=C1[O][Pt]2([NH][C@@H]3CCCC[C@H]3[NH]2)[O]C1=O [oxaliplatin],rate of reduction in the number of pH2AX foci-positive cells,"[7]; MSH3-deficient G5 versus MSH3-restored G5 and HCT116+3+5, 48 and 72 hours, FIGS. 5A & 5B",lower rate of reduction
same,number of pH2AX foci-positive cells before and after treatment,"[7]; MSH3-proficient versus -deficient cell lines, 5 μM for 6 hours",no differences
same,sensitivity (clonogenic survival),[1],more sensitive
same,sensitivity (clonogenic survival),"[2]; MSH3-deficient HCT116, HCT116+3 and G5 versus parental HCT116+3+5, FIG. 2C",significantly more sensitive
same,sensitivity (clonogenic survival) on restoration of MSH3,"[2]; MSH3-deficient cells (G1, G2, G5) with versus without doxycycline 1 μg/ml, FIG. 2D",restoration of oxaliplatin insensitivity
same,sensitivity (clonogenic survival),[3],more sensitive
same,apoptotic fraction (anti-active caspase-3 positive cells),[8],increased
same,levels of 53BP1,[9],Sustained levels
same,sensitivity,[4],did not differ
same,cell proliferation (BrdU incorporation),[10],decreased
same,degree of cell growth inhibition (decrease in S-phase population),[11]; FIG. 2E,significantly higher
same,levels of apoptosis (increase in sub-G1 population),[11]; FIG. 2F,significantly higher
same,susceptibility (clonogenic survival),[6],more susceptible
C[C@H]1c2cccc(O)c2C(=O)C2=C(O)[C@]3(O)C(=O)C(C(N)=O)=C(O)[C@@H](N(C)C)[C@@H]3[C@@H](O)[C@@H]21 [doxycycline],MSH3 expression relative to parental HCT116+3+5,[12],40-60%
CCc1c2c(nc3ccc(O)cc13)-c1cc3c(c(=O)n1C2)COC(=O)[C@]3(O)CC [SN-38],sensitization by MSH3 deficiency,[13],sensitized
O=C(c1cc(Cc2n[nH]c(=O)c3ccccc23)ccc1F)N1CCN(C(=O)C2CC2)CC1 [olaparib],sensitivity (clonogenic survival),"[2]; MSH3-deficient G5 versus MSH3-restored G5 cell line, 2 μM, FIG. 6A",more sensitive
